In EP1247803A2, “Indolinone compounds suitable for modulation of protein kinases” (Sugen, Inc., priority 1996, dated 1998):

Assays:
FLK-1 receptor = target: T1, FLK-1 receptor (Mus musculus, UniProt P35918); experiment: FLK-1 ELISA (kinase activity of the FLK-1 receptor in FLK-1/NIH3T3 cells, VEGF stimulated); type: cell-based
T1 construct: expressed in transfected cells; host or cells: NIH3T3 C7#3
Summary of the method: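 An ELISA using affinity-purified rabbit anti-FLK-1 antiserum on anti-rabbit IgG-coated plates measured VEGF-stimulated FLK-1 kinase activity. NIH3T3 C7#3 cells carrying FLK-1 were serum-starved (0.1% FBS) overnight, then exposed to compound (final 1:200 dilution, 0.5% DMSO) for two hours at 37 °C.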

PDGF-R = PDGF-R (Homo sapiens, UniProt P09619); experiment: PDGF-R ELISA; type: cell-based
Sequence of PDGF-R (P09619 33-1106, species assumed): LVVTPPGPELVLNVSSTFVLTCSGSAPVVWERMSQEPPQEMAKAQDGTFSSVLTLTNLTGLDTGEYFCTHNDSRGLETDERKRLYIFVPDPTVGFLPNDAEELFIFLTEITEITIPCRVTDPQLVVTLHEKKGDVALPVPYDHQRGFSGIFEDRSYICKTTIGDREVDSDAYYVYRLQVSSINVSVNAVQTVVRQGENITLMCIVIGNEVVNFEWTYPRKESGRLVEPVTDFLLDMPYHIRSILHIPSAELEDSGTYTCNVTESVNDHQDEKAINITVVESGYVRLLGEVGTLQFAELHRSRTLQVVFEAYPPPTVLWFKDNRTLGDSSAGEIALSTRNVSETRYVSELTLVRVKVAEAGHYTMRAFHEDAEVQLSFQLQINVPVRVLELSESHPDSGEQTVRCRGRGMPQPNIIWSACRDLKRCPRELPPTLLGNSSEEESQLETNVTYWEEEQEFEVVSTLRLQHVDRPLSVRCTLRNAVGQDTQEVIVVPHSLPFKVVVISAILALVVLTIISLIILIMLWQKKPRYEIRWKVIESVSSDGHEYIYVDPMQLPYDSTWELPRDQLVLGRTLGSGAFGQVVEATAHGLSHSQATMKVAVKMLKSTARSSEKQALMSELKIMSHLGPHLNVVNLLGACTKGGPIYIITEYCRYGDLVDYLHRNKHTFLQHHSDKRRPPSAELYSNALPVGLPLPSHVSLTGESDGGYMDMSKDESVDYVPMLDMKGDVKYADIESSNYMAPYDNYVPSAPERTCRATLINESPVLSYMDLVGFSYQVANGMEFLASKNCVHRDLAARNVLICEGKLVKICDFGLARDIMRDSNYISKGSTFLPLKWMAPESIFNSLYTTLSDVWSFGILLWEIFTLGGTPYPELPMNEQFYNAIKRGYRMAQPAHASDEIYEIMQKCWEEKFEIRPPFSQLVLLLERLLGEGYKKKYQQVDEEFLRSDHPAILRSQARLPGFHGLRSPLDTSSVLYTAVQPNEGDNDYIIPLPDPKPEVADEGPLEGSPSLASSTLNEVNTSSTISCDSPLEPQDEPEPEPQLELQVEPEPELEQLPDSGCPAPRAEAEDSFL
Text: A PDGF-R ELISA is described in International Patent Publication No. WO 96/40116, published December 19, 1996 by Tang et al.

T1 sequence (P35918 20-1345): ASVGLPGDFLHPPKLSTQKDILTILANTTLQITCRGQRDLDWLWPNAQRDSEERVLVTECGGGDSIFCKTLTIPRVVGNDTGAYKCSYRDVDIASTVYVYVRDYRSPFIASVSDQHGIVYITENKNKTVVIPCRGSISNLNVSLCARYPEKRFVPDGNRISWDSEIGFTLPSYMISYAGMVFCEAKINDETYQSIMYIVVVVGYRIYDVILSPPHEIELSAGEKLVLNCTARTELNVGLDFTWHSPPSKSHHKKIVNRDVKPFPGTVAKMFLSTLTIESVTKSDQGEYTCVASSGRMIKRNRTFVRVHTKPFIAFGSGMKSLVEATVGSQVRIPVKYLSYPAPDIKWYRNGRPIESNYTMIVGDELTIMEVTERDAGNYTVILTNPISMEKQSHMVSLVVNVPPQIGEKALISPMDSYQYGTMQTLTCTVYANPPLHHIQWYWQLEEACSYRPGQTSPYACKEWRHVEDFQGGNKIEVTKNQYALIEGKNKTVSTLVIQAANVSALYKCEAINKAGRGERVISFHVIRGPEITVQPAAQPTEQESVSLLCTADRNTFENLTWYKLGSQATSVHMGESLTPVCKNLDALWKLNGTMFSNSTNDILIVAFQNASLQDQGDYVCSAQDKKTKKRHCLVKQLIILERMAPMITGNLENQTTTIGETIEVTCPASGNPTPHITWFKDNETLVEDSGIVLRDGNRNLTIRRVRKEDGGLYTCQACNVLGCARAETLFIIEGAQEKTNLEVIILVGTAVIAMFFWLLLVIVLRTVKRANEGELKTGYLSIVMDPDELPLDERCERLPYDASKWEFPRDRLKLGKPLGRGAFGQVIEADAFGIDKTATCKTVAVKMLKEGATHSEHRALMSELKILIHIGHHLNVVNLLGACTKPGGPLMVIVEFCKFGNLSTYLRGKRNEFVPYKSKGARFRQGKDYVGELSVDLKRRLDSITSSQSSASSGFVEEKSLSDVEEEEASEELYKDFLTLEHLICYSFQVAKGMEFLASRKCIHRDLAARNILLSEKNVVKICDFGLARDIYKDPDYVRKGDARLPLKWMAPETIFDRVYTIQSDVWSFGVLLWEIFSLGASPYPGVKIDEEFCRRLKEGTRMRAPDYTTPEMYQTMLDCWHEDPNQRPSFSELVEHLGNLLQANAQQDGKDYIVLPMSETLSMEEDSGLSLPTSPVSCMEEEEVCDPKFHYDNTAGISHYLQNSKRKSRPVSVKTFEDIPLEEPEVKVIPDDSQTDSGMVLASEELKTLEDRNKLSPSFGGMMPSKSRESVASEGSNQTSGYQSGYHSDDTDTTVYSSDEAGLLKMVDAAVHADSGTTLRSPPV

Row | SMILES | Fik Kinase %Inhibition (FLK-1 receptor) [%] | PDGF Kinase %Inhibition (PDGF-R) [%]
1 | O=C1Nc2ccc(I)cc2C1=Cc1ccc(F)cc1F [10722/B06] | 13.9 | 21.5
2 | CC(C)(C)c1cc(C=C2C(=O)Nc3c(Br)cc(Br)cc32)cc([N+](=O)[O-])c1O [10722/A02] | 0.8 | 28.9
3 | CCCCN(CCCC)c1ccc(C=C2C(=O)Nc3ccc(S(=O)(=O)Nc4ccc(C(F)(F)F)cc4)cc32)cc1 [10722/E10] | 3.1 | 31.8
4 | O=C1Nc2c(Br)cc(Br)cc2C1=Cc1c(O)cc(O)cc1O [10722/A03] | 6.7 | 29.5
5 | CNS(=O)(=O)c1ccc2c(c1)C(=Cc1csc([N+](=O)[O-])c1)C(=O)N2 [10722/D09] | 14.7 | 30.6
6 | CNS(=O)(=O)c1ccc2c(c1)C(=Cc1ccc([N+](=O)[O-])s1)C(=O)N2 [10722/D04] | 23.5 | 15.7
7 | O=C1Nc2c(Br)cc(Br)cc2C1=Cc1ccc(F)cc1F [10722/A06] | 9.6 | 19.8
8 | O=C1Nc2ccc(S(=O)(=O)Nc3ccc(C(F)(F)F)cc3)cc2C1=Cc1ccc([N+](=O)[O-])s1 [10722/E04] | 38.6 | 30.6
9 | CCCCN(CCCC)c1ccc(C=C2C(=O)Nc3ccc(I)cc32)cc1 [10722/B10] | -0.9 | 20.3
10 | O=C1Nc2ccc(S(=O)(=O)Nc3ccc(C(F)(F)F)cc3)cc2C1=Cc1c(O)cc(O)cc1O [10722/E03] | 10.7 | -7.2
11 | O=C1Nc2ccc(S(=O)(=O)Nc3ccc(C(F)(F)F)cc3)cc2C1=Cc1ccc(C(=O)O)cc1 [10722/E05] | 19.2 | 19.2
12 | O=C1Nc2ccc(I)cc2C1=Cc1c(O)cc(O)cc1O [10722/B03] | 13.6 | 3.7
13 | O=C1Nc2c(Br)cc(Br)cc2C1=Cc1ccc([N+](=O)[O-])s1 [10722/A04] | 13.4 | -0.9
14 | CNS(=O)(=O)c1ccc2c(c1)C(=Cc1ccc(C(=O)O)cc1)C(=O)N2 [10722/D05] | 21.4 | 22.0
